US20090018134A1, “Compounds - 945” (AstraZeneca AB, priority 2007, published 2009)

biological target: T1, mTOR (Homo sapiens, UniProt P42345); experiment: In Vitro mTOR Kinase Assay (Echo), Test (a)(ii); type: biochemical; conditions: table of enzyme assay Test (a)(ii); read-out: Test (a)(ii) IC50
T1 construct: FLAG; made in house
Procedure, shortened: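 FLAG-tagged truncated mTOR (residues 1362-2549), expressed in HEK293 and purified via the FLAG tag, phosphorylated a biotinylated peptide over 2 hours at room temperature. EDTA stopped the reaction. Phospho-T389 was detected overnight by AlphaScreen using the p70 S6K T389 antibody with Protein A/streptavidin beads; IC50 reported.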

T1 sequence (P42345 1362-2549): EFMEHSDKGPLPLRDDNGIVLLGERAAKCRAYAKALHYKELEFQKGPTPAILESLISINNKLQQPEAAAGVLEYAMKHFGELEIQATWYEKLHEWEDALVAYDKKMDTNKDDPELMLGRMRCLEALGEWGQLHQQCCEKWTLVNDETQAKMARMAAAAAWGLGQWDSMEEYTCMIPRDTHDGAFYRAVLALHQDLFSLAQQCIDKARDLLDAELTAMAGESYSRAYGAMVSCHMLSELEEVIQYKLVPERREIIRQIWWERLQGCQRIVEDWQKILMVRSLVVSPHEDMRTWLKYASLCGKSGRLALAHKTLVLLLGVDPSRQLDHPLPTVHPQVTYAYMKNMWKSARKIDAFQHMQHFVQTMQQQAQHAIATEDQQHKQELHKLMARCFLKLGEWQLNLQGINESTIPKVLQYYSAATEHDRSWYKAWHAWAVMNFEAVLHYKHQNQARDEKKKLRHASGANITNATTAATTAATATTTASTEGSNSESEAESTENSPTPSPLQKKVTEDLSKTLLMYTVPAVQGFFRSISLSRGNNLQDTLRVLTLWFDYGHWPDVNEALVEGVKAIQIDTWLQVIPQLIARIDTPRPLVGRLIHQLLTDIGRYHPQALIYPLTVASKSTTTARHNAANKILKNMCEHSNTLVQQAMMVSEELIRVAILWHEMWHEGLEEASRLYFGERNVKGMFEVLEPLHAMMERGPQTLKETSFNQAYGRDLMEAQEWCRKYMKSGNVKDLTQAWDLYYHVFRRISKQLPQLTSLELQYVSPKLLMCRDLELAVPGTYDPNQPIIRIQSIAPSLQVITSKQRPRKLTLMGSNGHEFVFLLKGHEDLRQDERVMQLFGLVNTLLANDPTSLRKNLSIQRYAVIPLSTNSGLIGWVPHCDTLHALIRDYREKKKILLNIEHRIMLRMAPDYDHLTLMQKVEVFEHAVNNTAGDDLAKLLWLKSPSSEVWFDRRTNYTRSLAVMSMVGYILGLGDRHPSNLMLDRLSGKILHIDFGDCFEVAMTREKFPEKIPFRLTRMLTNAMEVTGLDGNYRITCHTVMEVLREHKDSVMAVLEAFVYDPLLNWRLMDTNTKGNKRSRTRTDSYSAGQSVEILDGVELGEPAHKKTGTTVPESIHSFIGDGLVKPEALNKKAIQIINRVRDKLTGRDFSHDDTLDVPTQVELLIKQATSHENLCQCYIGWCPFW

**Q.** With `C[C@H]1COC[C@H](C)N1c1cc(C2(S(=O)(=O)C3CC3)CC2)nc(-c2ccc(NC(=O)NCC(F)F)cc2)n1` [Example 92a, 1-[4-[4-(1-cyclopropylsulfonylcyclopropyl)-6-[(3S,5S)-3,5-dimethylmorpholin-4-yl]pyrimidin-2-yl]phenyl]-3-(2,2-difluoroethyl)urea] as the compound, how does the IC50 read?
**A.** 5.51 nM

**Q.** Which IC50 does the source give for `C[C@H]1COC[C@H](C)N1c1cc(C2(S(=O)(=O)C3CC3)CC2)nc(-c2ccc(NC(=O)Nc3cnn(C)c3)cc2)n1` [Example 92b, 1-[4-[4-(1-cyclopropylsulfonylcyclopropyl)-6-[(3S,5S)-3,5-dimethylmorpholin-4-yl]pyrimidin-2-yl]phenyl]-3-(1-methylpyrazol-4-yl)urea] here?
**A.** 7.46 nM

**Q.** How did the IC50 turn out when `CNC(=O)Nc1ccc(-c2nc(N3[C@@H](C)COC[C@@H]3C)cc(C3(S(=O)(=O)C4CC4)CC3)n2)cc1` [Example 92c, 1-[4-[4-(1-cyclopropylsulfonylcyclopropyl)-6-[(3S,5)-3,5-dimethylmorpholin-4-yl]pyrimidin-2-yl]phenyl]-3-methylurea] was run?
**A.** 7.8 nM

**Q.** Which IC50 does the source give for `CCNC(=O)Nc1ccc(-c2nc(N3[C@@H](C)COC[C@@H]3C)cc(C3(S(=O)(=O)C4CC4)CC3)n2)cc1` [Example 92d, 1-[4-[4-(1-cyclopropylsulfonylcyclopropyl)-6-[(3S,5S)-3,5-dimethylmorpholin-4-yl]pyrimidin-2-yl]phenyl]-3-ethylurea] here?
**A.** 8.07 nM

**Q.** How did the IC50 turn out when `C[C@H]1COC[C@H](C)N1c1cc(C2(S(=O)(=O)C3CC3)CC2)nc(-c2ccc(NC(=O)NCCF)cc2)n1` [Example 92e, 1-[4-[4-(1-cyclopropylsulfonylcyclopropyl)-6-[(3S,5S)-3,5-dimethylmorpholin-4-yl]pyrimidin-2-yl]phenyl]-3-(2-fluoroethyl)urea] was run?
**A.** 5.99 nM

**Q.** With `C[C@H]1COC[C@H](C)N1c1cc(C2(S(=O)(=O)C3CC3)CC2)nc(-c2ccc(NC(=O)NCCO)cc2)n1` [Example 92f, 1-[4-[4-(1-cyclopropylsulfonylcyclopropyl)-6-[(3S,5S)-3,5-dimethylmorpholin-4-yl]pyrimidin-2-yl]phenyl]-3-(2-hydroxyethyl)urea] as the compound, how does the IC50 read?
**A.** 6.25 nM

**Q.** For `C[C@H]1COC[C@H](C)N1c1cc(C2(S(=O)(=O)c3ccccc3)CC2)nc(-c2ccc(NC(=O)NC3CC3)cc2)n1` [Example 93, 1-[4-[4-[1-(Benzenesulfonyl)cyclopropyl]-6-[(3S,5S)-3,5-dimethylmorpholin-4-yl]pyrimidin-2-yl]phenyl]-3-cyclopropylurea], which IC50 is on record?
**A.** 5.05 nM

**Q.** For `CNC(=O)Nc1ccc(-c2nc(N3[C@@H](C)COC[C@@H]3C)cc(C3(S(=O)(=O)c4ccccc4)CC3)n2)cc1` [Example 93a, 1-[4-[4-[1-(benzenesulfonyl)cyclopropyl]-6-[(3S,5S)-3,5-dimethylmorpholin-4-yl]pyrimidin-2-yl]phenyl]-3-methylurea], which IC50 is on record?
**A.** 3.03 nM

**Q.** `C[C@H]1COC[C@H](C)N1c1cc(C2(S(=O)(=O)c3ccccc3)CC2)nc(-c2ccc(NC(=O)NCCO)cc2)n1` [Example 93b, 1-[4-[4-[1-(benzenesulfonyl)cyclopropyl]-6-[(3S,5S)-3,5-dimethylmorpholin-4-yl]pyrimidin-2-yl]phenyl]-3-(2-hydroxyethyl)urea] was tested. Which IC50 did it give?
**A.** 2.3 nM

**Q.** Which IC50 does the source give for `C[C@H]1COC[C@H](C)N1c1cc(C2(S(=O)(=O)c3ccccc3)CC2)nc(-c2ccc(NC(=O)NCCF)cc2)n1` [Example 93c, 1-[4-[4-[1-(benzenesulfonyl)cyclopropyl]-6-[(3S,5S)-3,5-dimethylmorpholin-4-yl]pyrimidin-2-yl]phenyl]-3-(2-fluoroethyl)urea] here?
**A.** 2.9 nM

**Q.** `C[C@H]1COC[C@H](C)N1c1cc(C2(S(=O)(=O)c3ccccc3)CC2)nc(-c2ccc(NC(=O)NCC(F)F)cc2)n1` [Example 93d, 1-[4-[4-[1-(benzenesulfonyl)cyclopropyl]-6-[(3S,5S)-3,5-dimethylmorpholin-4-yl]pyrimidin-2-yl]phenyl]-3-(2,2-difluoroethyl)urea] was tested. Which IC50 did it give?
**A.** 0.818 nM

**Q.** For `C[C@H]1COC[C@H](C)N1c1cc(C2(S(=O)(=O)c3ccccc3)CC2)nc(-c2ccc(NC(=O)Nc3cnn(C)c3)cc2)n1` [Example 93e, 1-[4-[4-[1-(benzenesulfonyl)cyclopropyl]-6-[(3S,5S)-3,5-dimethylmorpholin-4-yl]pyrimidin-2-yl]phenyl]-3-(1-methylpyrazol-4-yl)urea], which IC50 is on record?
**A.** 5.41 nM

**Q.** With `CNC(=O)Nc1ccc(-c2nc(N3CCOC[C@@H]3C)cc(C3(S(=O)(=O)C4CCOCC4)CC3)n2)cc1` [Example 94a, 3-methyl-1-[4-[4-[(3S)-3-methylmorpholin-4-yl]-6-[1-(oxan-4-ylsulfonyl)cyclopropyl]pyrimidin-2-yl]phenyl]urea] as the compound, how does the IC50 read?
**A.** 13.6 nM

**Q.** `CCNC(=O)Nc1ccc(-c2nc(N3CCOC[C@@H]3C)cc(C3(S(=O)(=O)C4CCOCC4)CC3)n2)cc1` [Example 94b, 1-ethyl-3-[4-[4-[(3S)-3-methylmorpholin-4-yl]-6-[1-(oxan-4-ylsulfonyl)cyclopropyl]pyrimidin-2-yl]phenyl]urea] was tested. Which IC50 did it give?
**A.** 12.2 nM

**Q.** Which IC50 does the source give for `C[C@H]1COCCN1c1cc(C2(S(=O)(=O)C3CCOCC3)CC2)nc(-c2ccc(NC(=O)NC3CC3)cc2)n1` [Example 94c, 3-cyclopropyl-1-[4-[4-[(3S)-3-methylmorpholin-4-yl]-6-[1-(oxan-4-ylsulfonyl)cyclopropyl]pyrimidin-2-yl]phenyl]urea] here?
**A.** 11.8 nM

**Q.** `C[C@H]1COCCN1c1cc(C2(S(=O)(=O)C3CCOCC3)CC2)nc(-c2ccc(NC(=O)NCCO)cc2)n1` [Example 94d, 3-(2-hydroxyethyl)-1-[4-[4-[(3S)-3-methylmorpholin-4-yl]-6-[1-(oxan-4-ylsulfonyl)cyclopropyl]pyrimidin-2-yl]phenyl]urea] was tested. Which IC50 did it give?
**A.** 11 nM

**Q.** How did the IC50 turn out when `C[C@H]1COCCN1c1cc(C2(S(=O)(=O)C3CCOCC3)CC2)nc(-c2ccc(NC(=O)Nc3cnn(C)c3)cc2)n1` [Example 94e, 1-[4-[4-[(3S)-3-methylmorpholin-4-yl]-6-[1-(oxan-4-ylsulfonyl)cyclopropyl]pyrimidin-2-yl]phenyl]-3-(1-methylpyrazol-4-yl)urea] was run?
**A.** 13.5 nM

**Q.** `C[C@H]1COCCN1c1cc(C2(S(=O)(=O)C3CCOCC3)CC2)nc(-c2ccc(NC(=O)NC3CCC3)cc2)n1` [Example 94f, 3-cyclobutyl-1-[4-[4-[(3S)-3-methylmorpholin-4-yl]-6-[1-(oxan-4-ylsulfonyl)cyclopropyl]pyrimidin-2-yl]phenyl]urea] was tested. Which IC50 did it give?
**A.** 15.1 nM

**Q.** How did the IC50 turn out when `CNC(=O)Nc1ccc(-c2nc(N3CCOC[C@@H]3C)cc(C3(S(=O)(=O)C4CCOC4)CC3)n2)cc1` (stereo partly drawn) [Example 94g, 3-methyl-1-[4-[4-[(3S)-3-methylmorpholin-4-yl]-6-[1-(oxolan-3-ylsulfonyl)cyclopropyl]pyrimidin-2-yl]phenyl]urea] was run?
**A.** 12.7 nM

**Q.** How did the IC50 turn out when `CCNC(=O)Nc1ccc(-c2nc(N3CCOC[C@@H]3C)cc(C3(S(=O)(=O)C4CCOC4)CC3)n2)cc1` (stereo partly drawn) [Example 94h, 1-ethyl-3-[4-[4-[(3S)-3-methylmorpholin-4-yl]-6-[1-(oxolan-3-ylsulfonyl)cyclopropyl]pyrimidin-2-yl]phenyl]urea] was run?
**A.** 11.6 nM

**Q.** With `C[C@H]1COCCN1c1cc(C2(S(=O)(=O)C3CCOC3)CC2)nc(-c2ccc(NC(=O)NC3CC3)cc2)n1` (stereo partly drawn) [Example 94i, 3-cyclopropyl-1-[4-[4-[(3S)-3-methylmorpholin-4-yl]-6-[1-(oxolan-3-ylsulfonyl)cyclopropyl]pyrimidin-2-yl]phenyl]urea] as the compound, how does the IC50 read?
**A.** 12.1 nM

**Q.** Which IC50 does the source give for `C[C@H]1COCCN1c1cc(C2(S(=O)(=O)C3CCOC3)CC2)nc(-c2ccc(NC(=O)NCCO)cc2)n1` (stereo partly drawn) [Example 94j, 3-(2-hydroxyethyl)-1-[4-[4-[(3S)-3-methylmorpholin-4-yl]-6-[1-(oxolan-3-ylsulfonyl)cyclopropyl]pyrimidin-2-yl]phenyl]urea] here?
**A.** 6.05 nM

**Q.** Which IC50 does the source give for `C[C@H]1COCCN1c1cc(C2(S(=O)(=O)C3CCOC3)CC2)nc(-c2ccc(NC(=O)Nc3cnn(C)c3)cc2)n1` (stereo partly drawn) [Example 94k, 1-[4-[4-[(3S)-3-methylmorpholin-4-yl]-6-[1-(oxolan-3-ylsulfonyl)cyclopropyl]pyrimidin-2-yl]phenyl]-3-(1-methylpyrazol-4-yl)urea] here?
**A.** 10.6 nM

**Q.** How did the IC50 turn out when `CNC(=O)Nc1ccc(-c2nc(N3CCOC[C@@H]3C)cc(C3(S(=O)(=O)c4ccc(F)c(Cl)c4)CC3)n2)cc1` [Example 95a, 1-[4-[4-[1-(3-chloro-4-fluorophenyl)sulfonyl-cyclopropyl]-6-[(3S)-3-methylmorpholin-4-yl]pyrimidin-2-yl]phenyl]-3-methylurea] was run?
**A.** 13.9 nM

**Q.** `C[C@H]1COCCN1c1cc(C2(S(=O)(=O)c3ccc(F)c(Cl)c3)CC2)nc(-c2ccc(NC(=O)NC3CC3)cc2)n1` [Example 95b, 1-[4-[4-[1-(3-chloro-4-fluorophenyl)sulfonyl-cyclopropyl]-6-[(3S)-3-methylmorpholin-4-yl]pyrimidin-2-yl]phenyl]-3-cyclopropylurea] was tested. Which IC50 did it give?
**A.** 19 nM

**Q.** How did the IC50 turn out when `C[C@H]1COCCN1c1cc(C2(S(=O)(=O)c3ccc(F)c(Cl)c3)CC2)nc(-c2ccc(NC(=O)NCCO)cc2)n1` [Example 95c, 1-[4-[4-[1-(3-chloro-4-fluorophenyl)sulfonyl-cyclopropyl]-6-[(3S)-3-methylmorpholin-4-yl]pyrimidin-2-yl]phenyl]-3-(2-hydroxyethyl)urea] was run?
**A.** 7.06 nM

**Q.** `C[C@H]1COCCN1c1cc(C2(S(=O)(=O)c3ccc(F)c(Cl)c3)CC2)nc(-c2ccc(NC(=O)NCCF)cc2)n1` [Example 95d, 1-[4-[4-[1-(3-chloro-4-fluorophenyl)sulfonyl-cyclopropyl]-6-[(3S)-3-methylmorpholin-4-yl]pyrimidin-2-yl]phenyl]-3-(2-fluoroethyl)urea] was tested. Which IC50 did it give?
**A.** 12.6 nM

**Q.** For `C[C@H]1COCCN1c1cc(C2(S(=O)(=O)c3ccc(F)c(Cl)c3)CC2)nc(-c2ccc(NC(=O)NCC(F)F)cc2)n1` [Example 95e, 1-[4-[4-[1-(3-chloro-4-fluorophenyl)sulfonyl-cyclopropyl]-6-[(3S)-3-methylmorpholin-4-yl]pyrimi-din-2-yl]phenyl]-3-(2,2-difluoroethyl)urea], which IC50 is on record?
**A.** 16 nM

**Q.** For `CCNC(=O)Nc1ccc(-c2nc(N3CCOC[C@@H]3C)cc(C3(S(=O)(=O)c4ccc(F)c(Cl)c4)CC3)n2)cc1` [Example 95f, 3-[4-[4-[1-(3-chloro-4-fluorophenyl)sulfonyl-cyclopropyl]-6-[(3S)-3-methylmorpholin-4-yl]pyrimidin-2-yl]phenyl]-1-ethylurea], which IC50 is on record?
**A.** 10.9 nM
